# System: HIV
# Assay: Table 1 IC50 of the examples (assay method not given; patent concerns inhibiting HIV replication)
# Format: cell-based
# Conditions: Human immunodeficiency virus 1
row,Compound,IC50 [nM]
1,"Cc1ccc(F)cc1C(=O)N1CCc2c1cc(C)c([C@H](OC(C)(C)C)C(=O)O)c2-c1cc(F)c2c(c1C)CCCO2 (atropisomer, axis not shown) [Example 80, (S)-2-(tert-Butoxy)-2-((R)-1-(5-fluoro-2-methylbenzoyl)-4-(8-fluoro-5-methylchroman-6-yl)-6-methylindolin-5-yl)acetic acid]",4
2,"Cc1cc2c(c(-c3cc(F)c4c(c3C)CCCO4)c1[C@H](OC(C)(C)C)C(=O)O)CCN2C(=O)c1ccc(C(F)(F)F)cc1 (atropisomer, axis not shown) [Example 46, (S)-2-(tert-Butoxy)-2-((R)-4-(8-fluoro-5-methylchroman-6-yl)-6-methyl-1-(4-(trifluoromethyl)benzoyl)indolin-5-yl)acetic acid]",4
3,"Cc1cc2c(c(-c3cc(F)c4c(c3C)CCCO4)c1[C@H](OC(C)(C)C)C(=O)O)CCN2C(=O)c1ccc(Cl)c(C(F)(F)F)c1 (atropisomer, axis not shown) [Example 148, (S)-2-(tert-Butoxy)-2-((R)-1-(4-chloro-3-(trifluoromethyl)benzoyl)-4-(8-fluoro-5-methylchroman-6-yl)-6-methylindolin-5-yl)acetic acid]",8
4,"COc1ccc(F)cc1C(=O)N1CCc2c1cc(C)c([C@H](OC(C)(C)C)C(=O)O)c2-c1cc(F)c2c(c1C)CCCO2 (atropisomer, axis not shown) [Example 101, (S)-2-(tert-Butoxy)-2-((R)-1-(5-fluoro-2-methoxybenzoyl)-4-(8-fluoro-5-methylchroman-6-yl)-6-methylindolin-5-yl)acetic acid]",5
5,"Cc1cc2c(c(-c3cc(F)c4c(c3C)CCCO4)c1[C@H](OC(C)(C)C)C(=O)O)CCN2C(=O)C(=O)c1ccccc1 (atropisomer, axis not shown) [Example 175, (S)-2-(tert-Butoxy)-2-((R)-4-(8-fluoro-5-methylchroman-6-yl)-6-methyl-1-(2-oxo-2-phenylacetyl)indolin-5-yl)acetic acid]",90
6,"Cc1cc2c(c(-c3cc(F)c4c(c3C)CCCO4)c1[C@H](OC(C)(C)C)C(=O)O)CCN2C(=O)c1cc(Cl)ccn1 (atropisomer, axis not shown) [Example 103, (S)-2-(tert-Butoxy)-2-((R)-1-(4-chloropicolinoyl)-4-(8-fluoro-5-methylchroman-6-yl)-6-methylindolin-5-yl)acetic acid]",16
7,"Cc1ccc(F)c(C(=O)N2CCc3c2cc(C)c([C@H](OC(C)(C)C)C(=O)O)c3-c2cc(F)c3c(c2C)CCCO3)c1 (atropisomer, axis not shown) [Example 55, (S)-2-(tert-Butoxy)-2-((R)-1-(2-fluoro-5-methylbenzoyl)-4-(8-fluoro-5-methylchroman-6-yl)-6-methylindolin-5-yl)acetic acid]",6
8,"Cc1cc2c(c(-c3cc(F)c4c(c3C)CCCO4)c1[C@H](OC(C)(C)C)C(=O)O)CCN2C(=O)CCc1ccccc1 (atropisomer, axis not shown) [Example 58, (S)-2-(tert-Butoxy)-2-((R)-4-(8-fluoro-5-methylchroman-6-yl)-6-methyl-1-(3-phenyl/propanoyl)indolin-5-yl)acetic acid]",41
9,"Cc1cc2c(c(-c3cc(F)c4c(c3C)CCCO4)c1[C@H](OC(C)(C)C)C(=O)O)CCN2C(=O)c1cc(F)cc(C(F)(F)F)c1 [Example 143, (S)-2-(tert-Butoxy)-2-((R)-1-(3-fluoro-5-(trifluoromethyl)benzoyl)-4-(8-fluoro-5-methylchroman-6-yl)-6-methylindolin-5-yl)acetic acid]",14
10,"Cc1cc2c(c(-c3cc(F)c4c(c3C)CCCO4)c1[C@H](OC(C)(C)C)C(=O)O)CCN2C(=O)c1cccc(Cl)c1Cl (atropisomer, axis not shown) [Example 92, (S)-2-(tert-Butoxy)-2-((R)-1-(2,3-dichlorobenzoyl)-4-(8-fluoro-5-methylchroman-6-yl)-6-methylindolin-5-yl)acetic acid]",6
11,"COc1ccc(C(=O)N2CCc3c2cc(C)c([C@H](OC(C)(C)C)C(=O)O)c3-c2ccc(C)cc2)cc1 [Example 13, (S)-2-(tert-Butoxy)-2-(1-(4-methoxybenzoyl)-6-methyl-4-(p-tolyl)indolin-5-yl)acetic acid]",11
12,"COc1cc(C(=O)N2CCc3c2cc(C)c([C@H](OC(C)(C)C)C(=O)O)c3-c2ccc3c(c2C)CCCO3)ccc1C (atropisomer, axis not shown) [Example 184, (S)-2-(tert-Butoxy)-2-((R)-1-(3-methoxy-4-methylbenzoyl)-6-methyl-4-(5-methylchroman-6-yl)indolin-5-yl)acetic acid]",4
13,"COc1ccc(C(=O)N2CCc3c2cc(C)c([C@H](OC(C)(C)C)C(=O)O)c3-c2cc(OC)c3c(c2C)CCCO3)cc1C (atropisomer, axis not shown) [Example 192, (S)-2-(tert-Butoxy)-2-((R)-1-(4-methoxy-3-methylbenzoyl)-4-(8-methoxy-5-methylchroman-6-yl)-6-methylindolin-5-yl)acetic acid]",5
14,"COc1ccc(C(=O)N2CCc3c2cc(C)c([C@H](OC(C)(C)C)C(=O)O)c3-c2ccc(C)cc2)cc1F [Example 11, (S)-2-(tert-Butoxy)-2-(1-(3-fluoro-4-methoxybenzoyl)-6-methyl-4-(p-tolyl)indolin-5-yl)acetic acid]",4
15,"Cc1ccc(-c2c3c(cc(C)c2[C@H](OC(C)(C)C)C(=O)O)N(C(=O)c2cccnc2)CC3)cc1 [Example 39, (S)-2-(tert-Butoxy)-2-(6-methyl-1-nicotinoyl-4-(p-tolyl)indolin-5-yl)acetic acid]",27
16,"Cc1cc2c(c(-c3cc(F)c4c(c3C)CCCO4)c1[C@H](OC(C)(C)C)C(=O)O)CCN2C(=O)c1cnccc1Cl (atropisomer, axis not shown) [Example 51, (S)-2-(tert-Butoxy)-2-((R)-1-(4-chloronicotinoyl)-4-(8-fluoro-5-methylchroman-6-yl)-6-methylindolin-5-yl)acetic acid]",17
17,"Cc1cc2c(c(-c3cc(F)c4c(c3C)CCCO4)c1[C@H](OC(C)(C)C)C(=O)O)CCN2C(=O)c1cccc(Cl)c1C (atropisomer, axis not shown) [Example 66, (S)-2-(tert-Butoxy)-2-((R)-1-(3-chloro-2-methylbenzoyl)-4-(8-fluoro-5-methylchroman-6-yl)-6-methylindolin-5-yl)acetic acid]",6
18,"Cc1ccc(C(=O)N2CCc3c2cc(C)c([C@H](OC(C)(C)C)C(=O)O)c3-c2cc(C(F)(F)F)c3c(c2C)CCCO3)cn1 (atropisomer, axis not shown) [Example 197, (S)-2-(tert-Butoxy)-2-((R)-6-methyl-4-(5-methyl-8-(trifluoromethyl)chroman-6-yl)-1-(6-methylnicotinoyl)indolin-5-yl)acetic acid]",712
19,"COc1ccc(C(=O)N2CCc3c2cc(C)c([C@H](OC(C)(C)C)C(=O)O)c3-c2ccc3c(c2C)CCCO3)cc1C (atropisomer, axis not shown) [Example 190, (S)-2-(tert-Butoxy)-2-((R)-1-(4-methoxy-3-methylbenzoyl)-6-methyl-4-(5-methylchroman-6-yl)indolin-5-yl)acetic acid]",124
20,"Cc1ccc(-c2c3c(cc(C)c2C(OC(C)(C)C)C(=O)O)N(C(=O)C2CCCCC2)CC3)cc1 (stereo not shown) [Example 8, 2-(tert-Butoxy)-2-(1-(cyclohexanecarbonyl)-6-methyl-4-(p-tolyl)indolin-5-yl)acetic acid]",15
21,"COc1cc(Cl)ccc1C(=O)N1CCc2c1cc(C)c([C@H](OC(C)(C)C)C(=O)O)c2-c1cc(F)c2c(c1C)CCCO2 (atropisomer, axis not shown) [Example 72, (S)-2-(tert-Butoxy)-2-((R)-1-(4-chloro-2-methoxybenzoyl)-4-(8-fluoro-5-methylchroman-6-yl)-6-methylindolin-5-yl)acetic acid]",7
22,"Cc1ccc(-c2c3c(cc(C)c2[C@H](OC(C)(C)C)C(=O)O)N(C(=O)c2ccc(C)c(F)c2)CC3)cc1 [Example 31, (S)-2-(tert-Butoxy)-2-(1-(3-fluoro-4-methylbenzov)-6-methyl-4-(p-tolyl)indolin-5-yl)acetic acid]",12
23,"Cc1ccc(-c2c3c(cc(C)c2C(OC(C)(C)C)C(=O)O)N(C(=O)c2ccc(F)c(F)c2)CC3)cc1 (stereo not shown) [Example 3, 2-(tert-Butoxy)-2-(1-(3,4-difluorobenzoyl)-6-methyl-4-(p-tolyl)indolin-5-yl)acetic acid]",12
24,"Cc1cc2c(c(-c3cc(F)c4c(c3C)CCCO4)c1[C@H](OC(C)(C)C)C(=O)O)CCN2C(=O)c1ccc(C(=O)N2CCCCC2)cc1 (atropisomer, axis not shown) [Example 112, (S)-2-(tert-Butoxy)-2-((R)-4-(8-fluoro-5-methylchroman-6-yl)-6-methyl-1-(4-(piperidine-1-carbonyl)benzoyl)indolin-5-yl)acetic acid]",295
25,"Cc1cc2c(c(-c3cc(F)c4c(c3C)CCCO4)c1[C@H](OC(C)(C)C)C(=O)O)CCN2C(=O)c1ccc(F)c(Cl)c1 (atropisomer, axis not shown) [Example 119, (S)-2-(tert-Butoxy)-2-((R)-1-(3-chloro-4-fluorobenzoyl)-4-(8-fluoro-5-methylchroman-6-yl)-6-methylindolin-5-yl)acetic acid]",3
26,"Cc1ccc(-c2c3c(cc(C)c2C(OC(C)(C)C)C(=O)O)N(C(=O)N2CCCCC2)CC3)cc1 (stereo not shown) [Example 6, 2-(tert-Butoxy)-2-(6-methyl-1-(piperidine-1-carbonyl)-4-(p-tolyl)indolin-5-yl)acetic acid]",369
27,"Cc1cc2c(c(-c3cc(F)c4c(c3C)CCCO4)c1[C@H](OC(C)(C)C)C(=O)O)CCN2C(=O)c1cc(F)cc(F)c1 (atropisomer, axis not shown) [Example 57, (S)-2-(tert-Butoxy)-2-((R)-1-(3,5-difluorobenzoyl)-4-(8-fluoro-5-methylchroman-6-yl)-6-methylindolin-5-yl)acetic acid]",2
28,"COc1ccc(C(=O)N2CCc3c2cc(C)c([C@H](OC(C)(C)C)C(=O)O)c3-c2cc(F)c3c(c2C)CCCO3)c(OC)c1 (atropisomer, axis not shown) [Example 88, (S)-2-(tert-Butoxy)-2-((R)-1-(2,4-dimethoxybenzoyl)-4-(8-fluoro-5-methylchroman-6-yl)-6-methylindolin-5-yl)acetic acid]",5
